Results reported in patent US12029738B2, “Antiproliferative compounds and methods of use thereof” (Celgene Corporation, priority 2017, dated 2024).
pEC50, pIC50: −log10 of the molar value.

Experiments:
[1] = system: multiple myeloma and plasma cell leukemia cell lines (OPM2.P10, RPMI.8226, L363, JJN-3); assay: Combination with proteasome inhibitor pulse (flow cytometry, 72 h); type: cell-based, human; conditions: L363; 1 h pulse
Protocol: Twenty four hours prior to treatment with a proteasome inhibitor and test compound, an appropriate number of cells were split to a concentration of 0.2×10^6/mL in fresh media to allow for exponential growth. On the day of treatment, compounds were freshly solvated in DMSO. Proteasome inhibitors bortezomib or carfilzomib were diluted and added to pre-warmed culture media at the final working concentrations of 150 nM or 300 nM for bortezomib and 300 nM or 550 nM for carfilzomib. Proteasome inhibitor concentrations were determined based upon clinical Cmax concentrations as well as previous studies in each cell line which determined the duration and concentration of PI required to inhibit a specific amount of β5 proteasome activity. Cells were counted and an appropriate number were placed into media containing proteasome inhibitor and thoroughly mixed. After incubation for 1 h at 37° C., 5% CO2, cells were washed two times with 40 mL of complete media to remove the proteasome inhibitor. […] Plated cells were cultured at 37° C., 5% C02, for the remainder of the experiment, up to 72 h. Every 24 h, proteasome inhibition was monitored by the Cell-Based Proteasome-Glo Assay. Proliferation and apoptosis were measured at 72 h by flow cytometry. Cells were stained with APC Annexin-V and 7-AAD to enumerate the number of viable cells remaining in culture.
An in vitro cell assay was established in order to mimic the clinical pharmacokinetics (PK) and pharmacodynamics (PD) of exposure to proteasome inhibitors bortezomib and carfilzomib.

[2] = system: lenalidomide-resistant NCI-H929 (H929-1051) multiple myeloma/plasmacytoma tumors; assay: H929-1051 xenograft, Compound 2 alone and with bortezomib; type: in vivo, mouse
[3] = system: neutrophil progenitors (BM CD34+ cells from healthy donors); assay: In vitro maturation of neutrophil progenitors, dexamethasone alone and with Compound 2
Protocol: Methods. To understand the effects of dexamethasone on neutropenia, in vitro cultures of BM CD34^+ cells from healthy donors were used to evaluate the neutropenic events mediated by dexamethasone as a single agent and in combination with Compound 2. To define the effects of dexamethasone monotherapy in this model, 1, 10, or 100 nM dexamethasone exposure was maintained for 30 h comparing 7 different dosing schedules (FIG. 11). For combination studies, single exposure Compound 2 (1, 10, or 100 nM) and dexamethasone were maintained for 6 and 30 h, respectively, starting at Day 13 of culture.

[4] = system: lenalidomide-resistant NCI-H929 (H929-1051) multiple myeloma/plasmacytoma tumors; assay: H929-1051 xenograft, Compound 2 alone and with dexamethasone; type: in vivo, mouse; conditions: single agent dexamethasone 0.5 mg/kg oral once daily
[5] = system: non-selective α1 adrenergic receptor; assay: α1 adrenergic receptor radioligand binding ([3H]prazosin); conditions: rat cerebral cortex
Protocol: (§1) α1 Adrenergic and Dopamine D2 Receptors. Methods: Binding and functional assays for α1 adrenergic and dopamine D2 receptors were performed by Eurofins Cerep according to their methods.
α1 Adrenergic Receptor. Binding at 10 μM. The binding assay evaluated the affinity of test article for the non-selective α1 adrenergic receptor in rat cerebral cortex. Membrane homogenates of cerebral cortex were incubated in duplicate for 60 minutes at room temperature with 0.25 nM [^3H]prazosin in the absence or presence of test articles at 10 μM. After the incubation period, samples were filtered through glass fiber filters, the filters dried and then counted for radioactivity using a scintillation counter. Results are expressed as mean percent inhibition of control radioligand binding.
Binding IC50. […] Compound A was tested at 0.01-30 μM. […] Compound 1 and Compound 2, the S-enantiomer of Compound 1, were assayed at 0.03-100 μM. Radioactivity was measured as described above. The IC50 was defined as the concentration causing a half-maximum inhibition of control specific binding.

[6] = molecular target: T1, α1A adrenergic receptor (Homo sapiens, UniProt P35348); assay: α1A adrenergic receptor antagonist assay (calcium mobilization, CHO cells); type: cell-based; conditions: epinephrine 3 nM; calcium mobilization; read-out: Antagonism IC50 α1A
T1 construct: host or cells: CHO cells
T1 sequence (P35348 1-466): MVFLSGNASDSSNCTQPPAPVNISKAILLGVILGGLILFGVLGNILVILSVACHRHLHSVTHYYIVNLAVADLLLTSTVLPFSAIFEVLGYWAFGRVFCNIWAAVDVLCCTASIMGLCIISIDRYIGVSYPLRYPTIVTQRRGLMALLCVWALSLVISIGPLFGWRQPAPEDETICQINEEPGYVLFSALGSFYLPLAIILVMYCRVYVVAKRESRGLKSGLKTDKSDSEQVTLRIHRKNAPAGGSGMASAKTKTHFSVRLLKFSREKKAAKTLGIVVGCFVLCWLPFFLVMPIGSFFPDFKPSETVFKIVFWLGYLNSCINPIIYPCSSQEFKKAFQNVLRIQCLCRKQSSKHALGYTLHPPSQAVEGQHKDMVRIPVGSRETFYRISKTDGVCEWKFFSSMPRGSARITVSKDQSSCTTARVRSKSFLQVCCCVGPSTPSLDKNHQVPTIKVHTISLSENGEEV
Protocol: as §1
Antagonist activity. The antagonistic effects of test compounds on the α1A and α1B adrenergic receptors were measured using human receptor-transfected Chinese hamster ovary (CHO) cells. Antagonist activity was determined by measuring compound effect on agonist (epinephrine)-induced calcium mobilization in the α1A receptor assay or cAMP levels in the α1B receptor assay. In these experiments, CHO cells were incubated in duplicate at room temperature with test article and epinephrine at 3 nM in the α1A receptor assays or at 3000 nM in the α1B receptor assay. Compound A was tested in the α1A receptor assay at 0.01-30 μM. […] Compound 1 and Compound 2 were assayed at 0.03 to 30 μM in the α1A receptor assay and 0.03 to 100 μM in the α1B receptor assay. In the α1A receptor assay, cytosolic calcium levels were measured fluorometrically using the fluorescent probe, Fluo4 Direct. Intracellular cAMP levels in the α1B adrenergic receptor assay were measured by homogenous time-resolved fluorescence (HTRF). The antagonism IC50 was defined as the concentration causing a half-maximum inhibition of control agonist response.

[7] = molecular target: T2, dopamine D2S receptor (Homo sapiens, UniProt P14416); assay: Dopamine D2S receptor radioligand binding (HEK-293)
T2 construct: host or cells: HEK-293 cells (membrane homogenates)
T2 sequence (P14416 1-414 isoform P14416-2): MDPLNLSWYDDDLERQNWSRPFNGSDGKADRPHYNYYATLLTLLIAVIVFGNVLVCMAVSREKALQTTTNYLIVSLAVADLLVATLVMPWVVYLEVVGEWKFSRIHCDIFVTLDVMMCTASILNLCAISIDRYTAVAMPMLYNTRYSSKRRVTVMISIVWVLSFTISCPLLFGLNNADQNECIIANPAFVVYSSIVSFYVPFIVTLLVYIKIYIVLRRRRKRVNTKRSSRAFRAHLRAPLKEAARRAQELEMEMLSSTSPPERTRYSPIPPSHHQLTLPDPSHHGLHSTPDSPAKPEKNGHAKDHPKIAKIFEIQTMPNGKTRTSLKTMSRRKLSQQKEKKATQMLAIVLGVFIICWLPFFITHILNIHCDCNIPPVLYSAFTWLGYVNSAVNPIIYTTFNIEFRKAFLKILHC
Protocol: as §1
Dopamine D2 Receptor. Binding at 10 μM. The binding assay evaluated the affinity of test articles for the dopamine D2 receptor in transfected human embryonic kidney (HEK)-293 cells. For determining the binding in the D2S receptor assay, test article was incubated with 0.3 nM [^3H] methylspiperone or 1 nM [^3H] 7-hydroxy-2-N,N-dipropylaminotetralin (7-OH-DPAT). [3H] Methylspiperone at 0.3 nM also was used as control ligand in the D2L binding assay. Cell membrane homogenates were incubated in duplicate at room temperature for 60 minutes with ligand in the absence or presence of test articles at 10 μM. After the incubation period, samples were filtered through glass fiber filters, the filters dried and then counted for radioactivity using a scintillation counter. Results are expressed as mean percent inhibition of control radioligand binding.
Binding IC50. To determine the binding IC50 in the D2 receptor assays, HEK-293 were tested as described above but with varying concentrations of test article. Compound A was tested at 0.01-30 μM in the D2S radioligand binding assay. […] Compound 1 was assayed at 0.03-100 μM in both the D2S and D2L assays, while Compound 2 was tested at 0.03-100 μM in the D2S assay and 0.01-100 μM in the D2L assays. The IC50 was defined as the concentration causing a half-maximum inhibition of control specific binding.

[8] = molecular target: T2, dopamine D2S receptor; assay: Dopamine D2S receptor agonist assay (impedance, HEK-293); type: cell-based; conditions: impedance; versus dopamine control; read-out: D2S Agonism EC50
Protocol: as §1
Agonist activity. The agonism of test compounds on the dopamine D2S receptor was assessed using human receptor-transfected HEK-293 cells. Agonist activity was determined by measuring compound effect on impedance modulation. In these experiments, HEK-293 cells were incubated in duplicate at 28° C. with test article. Compound A was tested at 0.01-30 μM. […] Dopamine (3 μM) was used as an agonist control. Impedance measurements were monitored for 10 minutes after ligand addition using cellular dielectric spectroscopy. The EC50 was defined as the concentration causing a half-maximum response, compared to the control agonist (dopamine) response.

[9] = in vivo; conditions: rat
Protocol: 7-Day Exploratory Toxicology Studies in Male Rats. Methods. Male CD-IGS rats (n=5/group for toxicologic assessment; n=4/group for toxicokinetic assessment) were dosed once daily by oral gavage (10 mL/kg) with vehicle (0.5% HPMC/0.25% Tween-80 in 50 mM citrate, pH 2.6-2.8) or test articles (Compound A or Compound 1) at 100, 300 or 1000 mg/kg/day for 7 consecutive days. Blood samples for toxicokinetics were collected on Days 1 and 7. […] Body weight was recorded at randomization, prior to dosing on Days 1-7 and prior to necropsy. Samples for hematology and serum chemistry analyses were collected on Day 8, approximately 24 h after the last dose. Rats were euthanized on Day 8 for necropsy. Anatomic pathology evaluation consisted of gross observation, organ weight and histopathologic examination of select tissues.

SMILES: CC(C)C[C@H](NC(=O)[C@H](Cc1ccccc1)NC(=O)c1cnccn1)B(O)O [bortezomib]
- single agent activity on cell viability [1]: no single agent activity on cell viability
- tumor growth inhibition / tumor volume reduction (TVR) ([2]; single agent bortezomib 1 mg/kg iv single dose day 31, day 50): 60%
- day by which tumors reached approximately 2000 mm^3 ([2]; single agent, 1 mg/kg): 66 days

SMILES: C[C@@H]1C[C@H]2[C@@H]3CCC4=CC(=O)C=C[C@]4(C)[C@@]3(F)[C@@H](O)C[C@]2(C)[C@@]1(O)C(=O)CO [Dexamethasone, dexamethasone]
- viability of immature and mature neutrophils ([3]; alone or in combination): not affected
- maturation of neutrophil progenitors / late-stage neutrophil precursors ([3]; single agent, 1, 10, 100 nM, dexamethasone 30 h, Compound 2 6 h): not affected
- tumor growth inhibition / tumor volume reduction (TVR) [4]: 20%

SMILES: O=C1CCC(N2Cc3c(OCc4ccc(CN5CCN(c6ccc(F)cc6F)CC5)cc4)cccc3C2=O)C(=O)N1 (racemic) [Compound A, 3-(4-((4-((4-(2,4-difluorophenyl)piperazin-1-yl)methyl)benzyl)oxy)-1-oxoisoindolin-2-yl)piperidine-2,6-dione]
- Adrenergic α1 (non-selective) % Inhibition (10 μM) ([5]; 10 μM, 0.25 nM [3H]prazosin): 102%
- pIC50 ([5]; [3H]prazosin): 7.19
- pIC50 [6]: 7.85
- pIC50 ([7]; read-out: D2S Binding IC50): 6.82
- inhibition at 10 µM ([7]; read-out: Dopamine D2S % Inhibition (10 μM)): 99%
- pEC50 [8]: 7.80
- AUC(0-t) ([9]; male, CD-IGS, po, 100 mg/kg/day): 441 µM·h
- AUC(0-t) ([9]; male, CD-IGS, po, 300 mg/kg/day): 1230 µM·h
- AUC(0-t) ([9]; male, CD-IGS, po, 1000 mg/kg/day): 1760 µM·h
- dose at which abnormal stomach content (dry, feed material) was observed grossly ([9]; male, CD-IGS, po, 7 days): ≥ 100 mg/kg
- dose at which clinical signs of toxicity (hunched posture, piloerection, decreased activity) and decreased body weight were observed ([9]; male, CD-IGS, po, 7 days): ≥ 300 mg/kg
- test article-related microscopic findings [9]: minimal multifocal myocardial necrosis and mixed cell infiltration in hearts of rats at all dose levels
